Here are results for six molecules from patent US8343939B2, “Methods of modulating angiogenesis” (Joslin Diabetes Center, Inc., priority 2007, dated 2013).

The subject of assay [1] is eNOS Ser1179 phosphorylation. In words: Western blot of eNOS phosphorylation in BAEC. In kind it is cell-based, bovine. As to conditions: for eNOS Ser1179 phosphorylation increased during stimulation: insulin 100 nM or VEGF 1 nM. The method, then: (§1) Bovine aortic endothelial cells (BAEC) were isolated by scraping the luminal side of a calf aorta with a cover glass and transferring the harvested material to a 100 mm cell culture dish. The primary culture and subcultures were grown in Dulbecco's modified Eagle medium (DMEM) with 5.5 mM glucose, 10% (v/v) horse serum, 25 mM HEPES, 100 U/ml penicillin, and 100 μg/ml streptomycin in collagen I-coated dishes (BioCoat, BD BioSciences). Purity of the cultures was validated by the presence of typical “cobblestone” morphology during phase-contrast microscopy (16) and by the ability of cells to take up acetylated LDL (DiI AcLDL, Molecular Probes, Eugene, Oreg.). Cultures used for experiments were plated in 6-well plates (9.5 cm^2 wells), except for PKC translocation assays (see below). The cells were serum-starved for 16 hours before stimulation by replacing growth medium with DMEM containing 0.1% (w/v) bovine serum albumin. At the time of stimulation, cultures were typically 3 days old and confluent. GF109203X (GFX) (Calbiochem, San Diego, Calif.), wortmannin (Calbiochem), phorbol-12-myristate-13-acetate (PMA) (Sigma, St. Louis, Mo.), bovine insulin (Sigma), and VEGF-A165 (R & D Systems, Minneapolis, Minn.) were added directly to the culture medium when indicated, using an identical volume of solvent as control.
(§2) Cultures were washed twice with ice-cold PBS and lysed in a buffer containing Tris (20 mM, pH 7.5), Triton X-100 (1% v/v), sodium pyrophosphate (2.5 mM); NaF (10 mM), NaCl (140 mM), EDTA (1 mM), EGTA (1 mM), β-glycerophosphate (1 mM), Na3VO4 (1 mM), leupeptin (1 μg/ml=2 μM), aprotinin (1 μg/ml=[…]), and phenylmethylsulfonylfluoride (1 mM). Protein concentration was measured by the Bradford method and samples reduced in modified Laemmli buffer (Invitrogen) and heated at 70° C. for 10 minutes. Equal sample volume and protein mass and reduced samples were separated on precast minigels (NuPAGE tris-acetate gels, Invitrogen) and electrotransferred to nitrocellulose.
(§3) Primary antibody targets were visualized by incubation with horseradish peroxidase-linked secondary antibodies, enhanced chemiluminescence (Amersham Biosciences (currently GE Healthcare), Piscataway, N.J.), and exposure to X-ray film (Kodak, New Haven, Conn.). The film was scanned and signal intensity of protein bands quantitated with ImageQuant software (version 5.1, Molecular Dynamics/Amersham Biosciences/GE Healthcare, Piscataway, N.J.). The intensity of phospho-specific immunoblot was normalized to the intensity of the unstimulated condition and of the nonphospho-specific protein.
BAEC were stimulated with insulin (100 nM, 5 minutes) or VEGF (1 nM, 5 minutes) after pretreatment with PMA (100 nM, 30 minutes) or vehicle as a control (DMSO, 0.2% (v/v)). Akt and eNOS phosphorylation in the BAEC was examined. In some experiments (FIGS. 1C and 1D), BAEC were also incubated with GFX (1 μM) or vehicle (DMSO 0.2%) 60 minutes before insulin or VEGF stimulation.
(§4) BAEC were stimulated with insulin (100 nM, 5 minutes) or VEGF (1 nM, 5 minutes) after pretreatment with wortmannin (100 nM, 30 minutes before insulin or VEGF stimulation) or vehicle (DMSO 0.2% (v/v)). In some experiments (FIG. 2C), BAEC were incubated with wortmannin (60 minutes before VEGF stimulation) or DMSO, then with PMA (30 minutes before VEGF stimulation) or DMSO.
(In western blotting, separated proteins are transferred to a membrane and probed.)

For assay [2], the system named is Akt Ser473 phosphorylation. In words: Western blot of Akt phosphorylation in BAEC. The class given is cell-based, bovine. As to conditions: for decrease in Akt Ser473 phosphorylation: PMA 100 nM, 30 minutes; for Akt Ser473 phosphorylation increased after stimulation: BAEC, insulin 100 nM or VEGF 1 nM. The method, then: as §1, §2, §3
BAEC were stimulated with insulin (100 nM, 5 minutes) or VEGF (1 nM, 5 minutes) after pretreatment with PMA (100 nM, 30 minutes) or vehicle as a control (DMSO, 0.2% (v/v)). Akt and eNOS phosphorylation in the BAEC was examined. […]
as §4

For the next assay, the target named is PKCα (Bos taurus, UniProt P04409). In words: Membrane translocation of PKC isoforms (cell fractionation, immunoblot) in BAEC. In kind it is cell-based, bovine. The settings on record: for translocation of PKCα from cytosol to membrane fractions: VEGF 1 nM, 3, 10 or 30 minutes, PMA 100 nM, 10 minutes.
The next assay has as its system PKCδ. The settings on record: for translocation of PKCδ from cytosol to membrane fractions: VEGF 1 nM, 3, 10 or 30 minutes, PMA 100 nM, 10 minutes.
In another assay the test system is PKCε. The settings on record: for translocation of PKCε from cytosol to membrane fractions: VEGF 1 nM, 3, 10 or 30 minutes, PMA 100 nM, 10 minutes.
The next assay has as its system Erk1/2 phosphorylation. Put plainly: Western blot of Erk1/2 phosphorylation in BAEC. The class given is cell-based, bovine. As to conditions: control siRNA; VEGF 1 nM, 5 minutes. Here is the method: as §2, §3
The subject of a further assay is VEGFR2. Put plainly: VEGFR2 protein expression (immunoprecipitation and immunoblot) in BAEC. As to conditions: cells transfected with control siRNA; VEGF 1 nM, 5 minutes. In kind it is cell-based, bovine. The method, then: For VEGFR2 and VEGFR1 immunoprecipitation, approximately 1 mg of protein was immunoprecipitated with 20 μg polyclonal antibody (Santa Cruz Biotechnology, Santa Cruz, Calif.) and washed 3 times with lysis buffer. Whole cell lysate or immunoprecipitates were reduced by addition of modified Laemmli buffer (Invitrogen) and heating to 70° C. for 10 minutes. Samples were then separated on precast minigels (NuPAGE tris-acetate gels, Invitrogen) and electrotransferred to a nitrocellulose membrane. […]
Primary antibody targets were visualized by incubation with horseradish peroxidase-linked secondary antibodies, enhanced chemiluminescence (Amersham Biosciences (currently GE Healthcare), Piscataway, N.J.), and exposure to X-ray film (Kodak, New Haven, Conn.). The film was scanned and signal intensity of protein bands quantitated with ImageQuant software (version 5.1, Molecular Dynamics/Amersham Biosciences/GE Healthcare, Piscataway, N.J.). […]

The next assay relates to BAEC. In words: DNA synthesis by BrdU incorporation in BAEC. The class given is cell-based, bovine. The settings on record: control siRNA condition; VEGF 1 nM. Here is the method: For measurement of DNA synthesis, cells were trypsin-treated 2 days after transfection with siRNA, and 10,000 cells were added to each well (0.32 cm^2) of 96-well plates in serum-free DMEM with 0.1% BSA, with or without VEGF 1 nM. After 16 hours, cells were labeled with 5-bromo-2′-deoxyuridine (BrdU) according to the manufacturer's instructions (Roche Applied Science, Penzberg, Germany). In short, the medium was replaced with medium containing 10 μM BrdU. After an additional 8 hours, cells were fixed and incubated with anti-BrdU antibody conjugated with peroxidase. After washing, a solution of tetramethyl-benzidine was added, and the color reaction quantitated by measuring the difference between the optical density at 370 and 492 nm.

A further assay concerns eNOS, Akt, Erk, or p38. In words: Phosphorylation of eNOS, Akt, Erk, p38 after placental growth factor in BAEC. As to conditions: data not shown. In kind it is cell-based, bovine. The method, then:
Next, VEGFR1 and VEGFR2 expression was examined. BAEC were transfected with siRNA, including the PKCε siRNA used in the previous experiments (abbreviated “ε1” here) and a second PKCε (“ε2”), grown, and serum-starved. VEGFR2 (a) or VEGFR1 (b) mRNA was measured in cell lysate by real-time PCR VEGF signal transduction during PKC knockdown could change because VEGFR2 expression results in a secondary change in VEGFR1/Fms-like tyrosine kinase-1 (Flt-1) expression. Indeed, PKCα and PKCδ knockdown increased VEGFR1 mRNA expression to 240±20 and 178±1% of the control siRNA condition, respectively (FIG. 12b, p<0.01). […] VEGFR1 protein or VEGFR1-mediated signal transduction was not detected by Western blotting in these cells. […] Thus, VEGFR1 protein is likely expressed at a very low level compared to VEGFR2 in BAEC. Changes seen in VEGF signal transduction during PKCα and δ knockdown could be influenced by upregulation of VEGFR1, but there is no indication that changes in VEGF signaling during PKCε knockdown can be attributed to changes in VEGFR1 mRNA expression.

The mark [3] stands for this setting: GFX 1 μM, 30 minutes pre-incubation, with or without insulin or VEGF.
[4] abbreviates: control siRNA condition, VEGF 1 nM, 5 minutes.

Protocol for PKCδ: (§5) For each condition, three 15 cm plates (each 151 cm^2) were used. After stimulation, the plates were washed twice in ice-cold PBS and once in a hypertonic lysis buffer (Buffer A) containing Tris (pH 7.5, 20 mM), sucrose (300 mM), EDTA (2 mM), EGTA (0.5 mM), DTT (1 mM), leupeptin (10 μg/ml), and PMSF (1 mM). Each set of 3 plates were then scraped in a combined volume of 3 ml of hypertonic buffer, homogenized in a glass Dounce homogenizer, and centrifuged at 1,000×g for 10 minutes. The supernatant was ultracentrifuged at 100,000×g for 30 minutes, and the ensuing supernatant was taken aside and used as the cytosolic fraction. The pellet was washed once in Buffer B (Buffer A without sucrose), then homogenized in 2.7 ml Buffer B in a glass Dounce homogenizer, and finally lysed by adding 0.3 ml Triton X-100 to a final concentration of 1% (v/v) and rotated for 30 minutes. After ultracentrifugation at 100,000×g for 30 minutes, the supernatant was taken aside and used as the membrane fraction. By using similar volumes for the initial lysis and for the membrane pellet, protein abundance in the cytosol and membrane fraction approximately represent their relative expression in the intact cell. Protein concentration was measured in both fractions with the bicinchoninic acid (BCA) assay, and samples were normalized for protein concentration and assayed by electrophoresis and Western blotting as described below.
(§6) BAEC were stimulated with VEGF (1 nM; 3, 10, or 30 minutes) or PMA (100 nM, 10 minutes).
Protocol for PKCε: as §5, §6

On to `CN(C)CCCn1cc(C2=C(c3c[nH]c4ccccc34)C(=O)NC2=O)c2ccccc21` [GFX, GF109203X], for which the “effect on the actions of PMA on eNOS phosphorylation” value in assay [1] (setting [3]) is “completely prevented”. In assay [2] (setting [3]), the “effect on the actions of PMA on Akt phosphorylation” value is recorded as “completely prevented”.
Take `CCCCCCCCCCCCCC(=O)O[C@@H]1[C@@H](C)[C@@]2(O)[C@@H](C=C(CO)C[C@]3(O)C(=O)C(C)=C[C@@H]23)[C@@H]2C(C)(C)[C@]12OC(C)=O` [PMA, phorbol-12-myristate-13-acetate]: on PKCα, the “translocation of PKCα from cytosol to membrane fractions” value was “stimulated translocation”. Also, in assay [1] (PMA 100 nM, 30 minutes, VEGF 1 nM, 5 minutes), the “eNOS Ser1179 phosphorylation increase when VEGF was preceded by PMA” value came to 2.7±0.4 fold. In assay [1] (PMA 100 nM, 30 minutes, insulin 100 nM, 5 minutes), the “eNOS Ser1179 phosphorylation increase when insulin was preceded by PMA” value is recorded as 1.2±0.2 fold. Besides, the “increase in VEGF-stimulated eNOS Ser1179 phosphorylation” value in assay [1] (PMA in the presence of wortmannin) is listed as 50±9%. The “translocation of PKCδ from cytosol to membrane fractions” value in the assay on PKCδ was “stimulated translocation”. For the same molecule, the “decrease in Akt Ser473 phosphorylation” value in assay [2] (after VEGF stimulation (1 nM, 5 minutes)) is 79±4%; in assay [2] (after insulin stimulation (100 nM, 5 minutes)), 81±4%; in assay [2] (basal state), 59±12%. Further, the “translocation of PKCε from cytosol to membrane fractions” value with PKCε is listed as “stimulated translocation”.
A word on the inhibition: it is the change of the read-out against control, counted positive when it falls. Consider `COC[C@H]1OC(=O)c2coc3c2[C@@]1(C)C1=C(C3=O)[C@@H]2CCC(=O)[C@@]2(C)C[C@H]1OC(C)=O` [wortmannin], for which, in assay [1] (Bos taurus, BAEC, wortmannin 100 nM, 30 minutes, VEGF 1 nM, 5 minutes, read-out: inhibition of VEGF-stimulated eNOS phosphorylation), the inhibition at 0.1 µM came to 30 ± 9%. Moreover, the “eNOS phosphorylation, % of basal” value in [1] (wortmannin 100 nM, 30 minutes, unstimulated) was 63±1 % of basal.
Regarding VEGF, at PKCα, the “translocation of PKCα from cytosol to membrane fractions” value was “stimulated translocation”. On PKCα (VEGF 1 nM, at 3 minutes), the “maximal decrease in cytosol expression of PKCα” value was determined as 18±10% and the “maximal increase in membrane expression of PKCα” value was determined as 72±57%. In assay [1] (BAEC, 5 minutes), the “eNOS Ser1179 phosphorylation increased during stimulation” value worked out at 2.6±0.5 fold. The “VEGF-stimulated eNOS phosphorylation, fold increase” value in assay [1] (setting [4]) came to 5.2±0.5 fold. The “translocation of PKCδ from cytosol to membrane fractions” value in the assay with PKCδ is “stimulated translocation”. Moreover, the “maximal decrease in cytosol expression of PKCδ” value in the assay with PKCδ (VEGF 1 nM, at 3 minutes) turned out to be 29±25%. Moreover, the “maximal increase in membrane expression of PKCδ” value with PKCδ (VEGF 1 nM, at 10 minutes) amounted to 39±10%. Moreover, the “VEGF-increased phosphorylation of Erk1/2” value in the assay on Erk1/2 phosphorylation was determined as 10±1.8 fold. Further, in [2] (5 minutes), the “Akt Ser473 phosphorylation increased after stimulation” value stood at 2.9±0.8 fold. In [2] (setting [4]), the “VEGF-stimulated Akt phosphorylation, fold increase” value came to 1.7±0.1 fold. Also, in the assay with VEGFR2, the “VEGF-stimulated decrease in VEGFR2 protein” value came to 12±3%. Also, the “VEGF-increased BrdU incorporation” value in the assay on BAEC was determined as 34%. In addition, the “translocation of PKCε from cytosol to membrane fractions” value in the assay with PKCε was “stimulated translocation”. In the assay with PKCε (VEGF 1 nM, at 3 minutes), the “maximal decrease in cytosol expression of PKCε” value is given as 57±21% and the “maximal increase in membrane expression of PKCε” value was 31±5%.
insulin: bovine insulin (Sigma): the “eNOS Ser1179 phosphorylation increased during stimulation” value in assay [1] (BAEC, 5 minutes) is recorded as 1.8±0.2 fold. In assay [2] (5 minutes), the “Akt Ser473 phosphorylation increased after stimulation” value was determined as 3.7±0.7 fold.

B1: placental growth factor: placental growth factor, which activates VEGFR1 but not VEGFR2 (protein, UniProt P49763 19-221, looked up)
Placenta growth factor: LPAVPPQQWALSAGNGSSEVEVVPFQEVWGRSYCRALERLVDVVSEYPSEVEHMFSPSCVSLLRCTGCCGDENLHCVPVETANVTMQLLKIRSGDRPSYVELTFSQHVRCECRHSPGRQSPDMPGDFRADAPSFLPPRRSLPMLFRMEWGCALTGSQSAVWPSSPVPEEIPRMHPGRNGKKQQRKPLREKMKPERCGDAVPRR
For the molecule B1, the “phosphorylation of eNOS, Akt, Erk, or p38” value with eNOS, Akt, Erk, or p38 is on record as “did not increase”.
